Reference: patent publication US8124778B2, “Tricyclic inhibitors of fatty acid amide hydrolase” (The Scripps Research Institute, priority 2007, dated 2012)

target: T1, purified recombinant rat FAAH (Rattus norvegicus, UniProt P97612); assay: FAAH inhibition enzyme assay (14C-oleamide hydrolysis, Dixon plot); type: biochemical; conditions: rat FAAH
T1 construct: The truncated rat FAAH (rFAAH) was expressed in E. coli and purified as described; made in house; host or cells: E. coli
T1 sequence (P97612 30-579 limits assumed): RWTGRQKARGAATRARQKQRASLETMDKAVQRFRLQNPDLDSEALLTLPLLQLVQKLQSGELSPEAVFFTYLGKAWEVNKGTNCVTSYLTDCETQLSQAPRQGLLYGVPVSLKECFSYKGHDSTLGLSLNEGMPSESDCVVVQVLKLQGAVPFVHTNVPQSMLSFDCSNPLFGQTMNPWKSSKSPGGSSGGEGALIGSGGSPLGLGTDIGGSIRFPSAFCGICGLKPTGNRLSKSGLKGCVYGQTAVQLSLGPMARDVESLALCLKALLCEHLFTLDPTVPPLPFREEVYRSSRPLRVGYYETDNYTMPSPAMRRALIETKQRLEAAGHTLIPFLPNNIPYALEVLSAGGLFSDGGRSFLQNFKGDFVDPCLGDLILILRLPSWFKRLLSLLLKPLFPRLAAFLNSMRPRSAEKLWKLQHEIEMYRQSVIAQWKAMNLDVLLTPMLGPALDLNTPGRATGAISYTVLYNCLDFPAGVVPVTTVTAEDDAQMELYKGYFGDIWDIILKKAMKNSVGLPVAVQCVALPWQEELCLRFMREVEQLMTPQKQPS
Experimental: Enzyme assays were performed at 20-23° C. with purified recombinant rat FAAH expressed in E. coli (Patricelli, M. P.; Lashuel, H. A.; et al. Biochemistry 1998, 37, 15177-15187) (unless indicated otherwise) or with solubilized COS-7 membrane extracts from cells transiently transfected with human FAAH cDNA (Giang, D. K.; Cravatt, B. F. Proc. Natl. Acad. Sci. U.S.A. 1997, 94, 2238-2242) (where specifically indicated) in a buffer of 125 mM Tris/1 mM EDTA/0.2% glycerol/0.02% Triton X-100/0.4 mM Hepes, pH 9.0 buffer (Patricelli, M. P.; Patterson, J. P.; et al. Bioorg. Med. Chem. Lett. 1998, 8, 613-618). The initial rates of hydrolysis (≦10-20% reaction) were monitored using enzyme concentrations at least three times below the measured Ki by following the breakdown of ^14C-oleamide and Ki's (standard deviations are provided in Supporting Information tables) were established as described (Dixon plot) (Boger, D. L.; Sato, H.; et al. Proc. Natl. Acad. Sci. U.S.A. 2000, 97, 5044-5049). Lineweaver-Burk analysis previously established reversible, competitive inhibition (Boger, D. L.; Miyauchi, H.; et al. J. Med. Chem. 2005, 48, 1849-1856).
FAAH Inhibition. ^14C-labeled oleamide was prepared from ^14C-labeled oleic acid as described (Cravatt, B. F.; et al. Science 1995, 268, 1506-1509). The truncated rat FAAH (rFAAH) was expressed in E. coli and purified as described (Patricelli, M. P.; Lashuel, H. A.; et al. Biochemistry 1998, 37, 15177-15187). The purified recombinant rFAAH was used in the inhibition assays unless otherwise indicated. The full-length human FAAH (hFAAH) was expressed in COS-7 cells as described (Giang, D. K.; Cravatt, B. F. Proc. Natl. Acad. Sci. U.S.A. 1997, 94, 2238-2242), and the lysate of hFAAH-transfected COS-7 cells was used in the inhibition assays where explicitly indicated.
The inhibition assays were performed as described (Cravatt, B. F.; et al. Science 1995, 268, 1506-1509). In brief, the enzyme reaction was initiated by mixing 1 nM of rFAAH (800, 500, or 200 pM rFAAH for inhibitors with Ki≦1-2 nM) with 10 μM of ^14C-labeled oleamide in 500 μL of reaction buffer (125 mM TrisCl, 1 mM EDTA, 0.2% glycerol, 0.02% Triton X-100, 0.4 mM Hepes, pH 9.0) at room temperature in the presence of three different concentrations of inhibitor. The enzyme reaction was terminated by transferring 20 μL of the reaction mixture to 500 μL of 0.1 N HCl at three different time points. The ^14C-labeled oleamide (substrate) and oleic acid (product) were extracted with EtOAc and analyzed by TLC as detailed (Cravatt, B. F.; et al. Science 1995, 268, 1506-1509). The Ki of the inhibitor was calculated using a Dixon plot as described (standard deviations are provided in the Supporting Information tables) (Boger, D. L.; Sato, H.; et al. Proc. Natl. Acad. Sci. U.S.A. 2000, 97, 5044-5049). Lineweaver-Burk analysis was performed as described confirming competitive, reversible inhibition (Boger, D. L.; Miyauchi, H.; et al. J. Med. Chem. 2005, 48, 1849-1856).

| FAAH inhibitory potency (in words) | Compound |
| --- | --- |
| significant loss of inhibitory potency | O=C(CCCCc1ccccc1)CC(=O)c1ncc(-c2ccccn2)o1 [14g, 7-Phenyl-1-(5-(pyridin-2-yl)oxazol-2-yl)heptane-1,3-dione] |
| substantial loss in inhibitory potency | OC(CCCCc1ccccc1)CC(O)c1ncc(-c2ccccn2)o1 (stereo not drawn) [14h, 7-Phenyl-1-(5-(pyridin-2-yl)oxazol-2-yl)heptane-1,3-diol] |
| significant potency | O=C(CCCCSCc1ccccc1)c1ncc(-c2ccccn2)o1 [12k, 5-(Benzylthio)-1-(5-(pyridin-2-yl)oxazol-2-yl)pentan-1-one] |
| loss of activity | O=C(c1ncc(-c2ccccn2)o1)C1CC1 [14d, Cyclopropyl(5-(pyridin-2-yl)oxazol-2-yl)methanone] |
| significant potency | O=C(CSCCCCc1ccccc1)c1ncc(-c2ccccn2)o1 [12b, 2-(4-Phenylbutylthio)-1-(5-(pyridin-2-yl)oxazol-2-yl)ethanone] |
| submicromolar inhibitor of FAAH | O=C(CCl)c1ncc(-c2ccccn2)o1 [14f, 2-Chloro-1-(5-(pyridin-2-yl)oxazol-2-yl)ethanone] |
| substantial loss in inhibitory potency | CN(CCCCc1ccccc1)CC(O)c1ncc(-c2ccccn2)o1 (stereo not drawn) [14i, 2-(Methyl(4-phenylbutyl)amino)-1-(5-(pyridin-2-yl)oxazol-2-yl)ethanol] |
| lower ability to inhibit FAAH | O=C(CCC(=O)c1ncc(-c2ccccn2)o1)NCCc1ccccc1 [13a, 4-Oxo-N-phenethyl-4-(5-(pyridin-2-yl)oxazol-2-yl)butanamide] |
| significant potency | O=C(CCCCCSc1ccccc1)c1ncc(-c2ccccn2)o1 [12p, 6-(Phenylthio)-1-(5-(pyridin-2-yl)oxazol-2-yl)hexan-1-one] |
| loss of activity | O=C(c1ncc(-c2ccccn2)o1)C1CCCC1 [14e, Cyclopentyl(5-(pyridin-2-yl)oxazol-2-yl)methanone] |
| lower potency | O=C(CCC(O)CCCc1ccccc1)c1ncc(-c2ccccn2)o1 (stereo not drawn) [13f, 4-Hydroxy-7-phenyl-1-(5-(pyridin-2-yl)oxazol-2-yl)heptan-1-one] |
| significant loss in potency | O=C(CS(=O)(=O)CCCCc1ccccc1)c1ncc(-c2ccccn2)o1 [12d, 2-(4-Phenylbutylsulfonyl)-1-(5-(pyridin-2-yl)oxazol-2-yl)ethanone] |

The next lines start with the molecule.

| Compound | FAAH inhibitory potency (in words) |
| --- | --- |
| CCCCCCc1ccc(CCCCCCC(=O)c2ncc(-c3ccccn3)o2)cc1 [5nn, 1-Oxo-1-[5-(2-pyridyl)oxazol-2-yl]-7-(4-hexylphenyl)heptane] | significant potency |
| O=C(CCCCCCc1cccc2ccccc12)c1ncc(-c2ccccn2)o1 [5c, 1-Oxo-1-[5-(2-pyridyl)oxazol-2-yl]-7-(1-naphthyl)heptane] | effective inhibitors |
| CS(=O)(=O)c1cccc(CCCCCCC(=O)c2ncc(-c3ccccn3)o2)c1 [5ll, 1-Oxo-1-[5-(2-pyridyl)oxazol-2-yl]-7-(3-(methylsulfonyl)phenyl)heptane] | significant potency |
| O=C(CCCCCCc1ccsc1)c1ncc(-c2ccccn2)o1 [5b, 1-Oxo-1-[5-(2-pyridyl)oxazol-2-yl]-7-(3-thienyl)heptane] | effective inhibitors |
| O=C(CCCCCCc1ccc2ccccc2c1)c1ncc(-c2ccccn2)o1 [5d, 1-Oxo-1-[5-(2-pyridyl)oxazol-2-yl]-7-(2-naphthyl)heptane] | effective inhibitors |
| CCCCCCc1cccc(CCCCCCC(=O)c2ncc(-c3ccccn3)o2)c1 [5oo, 1-Oxo-1-[5-(2-pyridyl)oxazol-2-yl]-7-(3-hexylphenyl)heptane] | less effective |
| O=C(CCCCCCc1cccs1)c1ncc(-c2ccccn2)o1 [5a, 1-Oxo-1-[5-(2-pyridyl)oxazol-2-yl]-7-(2-thienyl)heptane] | effective inhibitors |

same assay, conditions: rat FAAH, o- and p-methylsulfone vs 5ll

| Compound | fold less effective than m-methylsulfone 5ll |
| --- | --- |
| CS(=O)(=O)c1ccccc1CCCCCCC(=O)c1ncc(-c2ccccn2)o1 [5kk, 1-Oxo-1-[5-(2-pyridyl)oxazol-2-yl]-7-(2-(methylsulfonyl)phenyl)heptane] | approximately 10 fold |
| CS(=O)(=O)c1ccc(CCCCCCC(=O)c2ncc(-c3ccccn3)o2)cc1 [5mm, 1-Oxo-1-[5-(2-pyridyl)oxazol-2-yl]-7-(4-(methylsulfonyl)phenyl)heptane] | approximately 10 fold |

same assay, conditions: recombinant rat FAAH, 14C-oleamide, pH 9.0, 20-23 °C

| Ki [nM] | Compound |
| --- | --- |
| 8 | O=C(c1ncc(-c2ccccn2)o1)C(O)CCCCCc1ccccc1 (stereo not drawn) [13d, 2-Hydroxy-7-phenyl-1-(5-(pyridin-2-yl)oxazol-2-yl)heptan-1-one] |
| 3 | O=C(CCCCCSc1ccccc1)c1ncc(-c2ccccn2)o1 [12p, 6-(Phenylthio)-1-(5-(pyridin-2-yl)oxazol-2-yl)hexan-1-one] |

More lines, now with the values behind:

| Compound | Ki [nM] |
| --- | --- |
| O=C(CCCCCCc1cccc2ccccc12)c1ncc(-c2ccccn2)o1 [5c, 1-Oxo-1-[5-(2-pyridyl)oxazol-2-yl]-7-(1-naphthyl)heptane] | 2.6 |
| O=C(CCCCCCc1cccc(Cl)c1)c1ncc(-c2ccccn2)o1 [5hh, 1-Oxo-1-[5-(2-pyridyl)oxazol-2-yl]-7-(3-chlorophenyl)heptane] | 0.9 |

tested on: not given; assay: not given; conditions: not given

| Compound | melting point [°C] |
| --- | --- |
| O=C(CCCCC#Cc1cccc(Cl)c1)c1ncc(-c2ccccn2)o1 [4hh, 1-Oxo-1-[5-(2-pyridyl)oxazol-2-yl]-7-(3-chlorophenyl)hept-6-yne] | 50 to 51 |
| O=C(CCCCCCc1cccc(Cl)c1)c1ncc(-c2ccccn2)o1 [5hh, 1-Oxo-1-[5-(2-pyridyl)oxazol-2-yl]-7-(3-chlorophenyl)heptane] | 91 to 92 |
